Results on two compounds are retold here after patent publication US10633418B2, “Cross-linked peptides containing non-peptide cross-linked structure, method for synthesizing cross-linked peptides, and novel organic compound used in method” (JITSUBO Co., Ltd., priority 2011, dated 2020).

The target of data set [1] is T1, chymotrypsin (Bos taurus, UniProt P00766).
T1 construct: purchased SIGMA
The data set can be described thus: Decomposition by chymotrypsin (resistance to peptidase). In kind it is in vitro ADME. Particulars: chymotrypsin (isolated enzyme, SIGMA), pH 8; enzyme solution 4 U/ml in 0.1M Tris-HCl (pH8.0), peptide 0.2 mg/ml, 37° C., HPLC; read-out: half period by chymotrypsin (t1/2). On the procedure: (§1) Resistance to a peptidase of a peptide of the present invention was investigated using a carboxy peptidase and chymotrypsin. Resistance to a peptidase was measured as described below.
(Decomposition by Chymotrypsin)
Chymotrypsin purchased from SIGMA was treated with 0.1M Tris-HCl (pH8.0) to prepare an enzyme solution of 4 U/ml, which was then kept warm at 37° C. in a water bath. Then, a peptide solution treated with DMSO: pure water=1:1 to obtain a concentration of 5 mg/ml was treated with 0.1M Tris-HCl (pH8.0) to give a concentration of 1 mg/ml, and the enzyme solution and the peptide solution were mixed at 4:1 so as to give a peptide final concentration of 0.2 mg/ml. Thereafter, these were reacted quickly at 37° C. With time, the reaction solution was sampled each in an amount of 0.1 ml, and a reaction stopping solution (25% TFA in acetonitrile, 20 μL) was added to stop the reaction. Samples were analyzed by HPLC, and decomposition of a peptide by chymotrypsin was measured. Sampling was conducted at 0, 0.5 minutes, 1 minute and 2 minutes, and when decomposition of 50% or more was not obtained at 2 minutes, sampling was conducted further at 0.5 hours, 1 hour, 3 hours, and time at which half of the peptide added was decomposed was measured.

The subject of data set [2] is carboxy peptidase. The data set is described as follows: Decomposition by carboxy peptidase (resistance to peptidase). In kind it is in vitro ADME. The conditions noted are these: carboxy peptidase (isolated enzyme, SIGMA); enzyme solution 1 U/ml in PBS, peptide 0.2 mg/ml, 37° C., HPLC; time at which half of the peptide was decomposed; read-out: half period by carboxy peptidase (t1/2) (converted). On the procedure:
as §1
(Decomposition by Carboxy Peptidase)
A carboxy peptidase purchased from SIGMA was treated with PBS to prepare an enzyme solution of 1 U/ml, which was then kept warm at 37° C. in a water bath. Then, a peptide solution having a concentration adjusted to 5 mg/ml with DMSO: pure water=1:1 mixed solvent was treated with PBS(−) to obtain a concentration of 1 mg/ml, and the enzyme solution and the peptide solution were mixed at 4:1 so as to give a peptide final concentration of 0.2 mg/ml. Thereafter, these were reacted quickly at 37° C. With time, the reaction solution was sampled each in an amount of 0.1 ml, and a reaction stopping solution (25% TFA in acetonitrile, 20 μL) was added to stop the reaction. Samples were analyzed by HPLC, and decomposition of a peptide by the peptidase was measured. […] Time at which half of the peptide added was decomposed was measured.

Numbered stars: 1 amine (or outer) side, 2 acyl side, 3 side chain; on linkers, the order of the positions; unused ones are H or OH. Bridge positions count the residues as written; N and C are the ends. Square brackets hold non-standard residues; d marks the D form. Peptide text beside a SMILES is read from it. Nle(6-ylidene) = O=C([C@H](CCCC=[*:3])N[*:1])[*:2]

For `CC(=O)N1CCCC[C@@H](C(=O)N[C@@H](Cc2ccc(O)cc2)C(=O)O)NC(=O)[C@H](CC(C)C)NC(=O)[C@H](Cc2ccc(O)cc2)NC(=O)[C@H](CCC(N)=O)NC(=O)[C@H](CO)NC(=O)[C@H](Cc2c[nH]c3ccccc23)NC(=O)CN(C(=O)[C@@H](N)Cc2ccc(O)cc2)CCCC1` [Bdev-19], the half-life at 0.2 mg/ml was 0.97 min in data set [1] and 0.0495 h in data set [2].

For `CC(C)C[C@@H]1NC(=O)[C@H](Cc2ccc(O)cc2)NC(=O)[C@H](CCC(N)=O)NC(=O)[C@H](CO)NC(=O)[C@H](Cc2c[nH]c3ccccc23)NC(=O)[C@@H](NC(=O)[C@@H](N)Cc2ccc(O)cc2)CCC/C=C\CCC[C@@H](C(=O)N[C@@H](Cc2ccc(O)cc2)C(=O)O)NC1=O` [Comp. 3] (H-Y[Nle(6-ylidene)]WSQYL[Nle(6-ylidene)]Y-OH; staple (Z) 2-8), the half-life at 0.2 mg/ml in data set [1] is 2.07 min; in data set [2] it was 79 h.
